# In patent publication US12336536B2, “Method for controlling herbicide resistant or tolerant weeds” (BASF Agro B.V., priority 2015, dated 2025):
# Columns and labels:
# [1] = test system: ryegrass (LOLMU) biotypes; test: Greenhouse test, control of resistant weed biotypes, post-emergence, ryegrass; format: in vivo, Lolium multiflorum; details: for Herbicidal activity: post-emergence, scale 0 to 100
# Experimental: The herbicidal activity of herbicide A on resistant weed biotypes was tested in comparison with certain commercial herbicides by the following greenhouse experiments:
# The culture containers used were plastic flowerpots containing loamy sand with approximately 3.0% of humus as the substrate. The seeds of the test plants were sown separately for each species. Six blackgrass (ALOMY) (10-103, 10-170, 09-591, 10-123, 11-215, 11-146) and six ryeg rass (LOLMU) (12-166, 12-143, 12-165, 12-307, 13-304, 13-313) biotypes with varying degrees of resistance towards a range of modes of action according to the HRAC (Herbicide Resistance Action Committee) classification on mode of action 2010 (see e.g http://www.hracglobal.com/pages/classificationofherbicidesiteofaction.aspx) were tested alongside two non-resistant biotypes (14-116 and 13-243), see Tables 1 and 2 below.
# For the post-emergence treatment, the test plants were first grown to a height of 3 to 15 cm, depending on the plant habit, and only then treated with the active ingredients which had been suspended or emulsified in water. For this purpose, the test plants were either sown directly and grown in the same containers, or they were first grown separately as seedlings and transplanted into the test containers a few days prior to treatment.
# Depending on the species, the plants were kept at 10-25° C. or 20-35° C. The test period extended over 2 to 4 weeks. During this time, the plants were tended, and their response to the individual treatments was evaluated.
# The racemic mixture (±)-2-exo-(2-Methylbenzyloxy)-1-methyl-4-isopropyl-7-oxabicyclo[2.2.1]heptane was used as herbicide A and formulated as emulsifiable concentrates with an active ingredient concentration of 50 g/l, 100 g/l or 750 g/l respectively.
# Flufenacet was used as a commercial concentrated solution formulation having an active ingredient concentration of 500 g/l (Cadou).
# Imazamox was used as a water dispersible granule (70% WG).
# Evaluation of the herbicidal activity was carried out using a scale from 0 to 100. 100 means complete destruction of at least the aerial moieties, and 0 means no damage, or normal course of growth. A good herbicidal activity is given at values of at least 70 and a very good herbicidal activity is given at values of at least 85.
# BRSNW = test: Greenhouse test, solo and combination, post-emergence, 20 DAT; format: in vivo, Brassica napus
# Experimental: (§1) The test plants have been seeded, separately for each species, in plastic containers in sandy loamy soil containing 5% of organic matter.
# (§2) For the post-emergence treatment, the plants were first grown to the 2 leaf station (GS 12) and applied at GS 12-19 depending on the species. The herbicidal compositions were suspended or emulsified in water as distribution medium and sprayed using finely distributing nozzles.
# (§3) The plants have been cultivated due to their individual requirements at 10-25° C. and 20-35° C. The plants were irrigated due to their necessity.
# (§4) The racemic mixture (±)-2-exo-(2-Methylbenzyloxy)-1-methyl-4-isopropyl-7-oxabicyclo[2.2.1]heptane was used as herbicide A and formulated as emulsifiable concentrate having an active ingredient concentration of 750 g/l.
# (§5) Cyhalofop-butyl (herbicide B.5) was used as an emulsifiable concentrate (EC) formulation having an active ingredient concentration of 200 g/l.
# (§6) Metsulfuron-methyl (herbicide B.53) was used as a water soluble granule (SG) formulation having an active ingredient concentration of 20%.
# (§7) Bispyribac-sodium (herbicide B.23) was used as a soluble concentrate (SL) formulation having an active ingredient concentration of 408 g/l.
# (§8) Quizalofop-P-ethyl (herbicide B.217) was used as a suspension concentrate (SC) formulation having an active ingredient concentration of 106 g/l.
# (§9) In the following experiments, the herbicidal activity for the individual herbicide compounds (solo and mixture applications) was assessed 20 days after treatment (DAT).
# (§10) The evaluation for the damage on undesired weeds caused by the chemical compositions was carried out using a scale from 0 to 100%, compared to the untreated control plants. Here, 0 means no damage and 100 means complete destruction of the plants.
# (§11) The plants used in the greenhouse experiments belonged to the following species:
# (§12) E=X+Y−(X·Y/100) • where X=effect in percent using herbicide A at an application rate a; • Y=effect in percent using herbicide B at application rate b; • E=expected effect (in %) of herbicide A+herbicide B at application rates a+b.
# (§13) The value E corresponds to the effect (plant damage or injury) which is to be expected if the activity of the individual compounds is additive. If the observed effect is higher than the value E calculated according to the Colby equation, a synergistic effect is present.
# (§14) Tables 3 to 6 below relate the herbicidal activity, in greenhouse trials, of the individual actives and the combination applied at different rates and ratios, in post-emergence application at 20 days after treatment (DAT).
# ALOMY = test: as above; format: in vivo, Alopecurus myosuroides
# Experimental: as §1, §2, §3, §4, §5, §6, §7, §8, §9, §10, §11, §12, §13, §14
# LOLRI = test: as above; format: in vivo, Lolium rigidum
# Experimental: as §1, §2, §3, §4, §5, §6, §7, §8, §9, §10, §11, §12, §13, §14
# BROST = test: as above; format: in vivo, Bromus sterilis
# Experimental: as §1, §2, §3, §4, §5, §6, §7, §8, §9, §10, §11, §12, §13, §14
# MATIN = test: as above; format: in vivo, Matricaria inodora
# Experimental: as §1, §2, §3, §4, §5, §6, §7, §8, §9, §10, §11, §12, §13, §14
# GALAP = test: as above; format: in vivo, Galium aparine
# Experimental: as §1, §2, §3, §4, §5, §6, §7, §8, §9, §10, §11, §12, §13, §14
# PAPRH = test: as above; format: in vivo, Papaver rhoeas
# Experimental: as §1, §2, §3, §4, §5, §6, §7, §8, §9, §10, §11, §12, §13, §14
substance,measurement,setting,value
(±)-2-exo-(2-Methylbenzyloxy)-1-methyl-4-isopropyl-7-oxabicyclo[2.2.1]heptane [Herbicide A],Herbicidal activity,"[1]; BT 12-143, resistant HRAC group A, B, C, E, K, 125 g ai/ha",80
same,Herbicidal activity,"[1]; BT 12-143, resistant HRAC group A, B, C, E, K, 250 g ai/ha",95
same,Herbicidal activity,"[1]; BT 12-165, resistant HRAC group A, B, E, K, 125 g ai/ha",95
same,Herbicidal activity,"[1]; BT 12-165, resistant HRAC group A, B, E, K, 250 g ai/ha",100
same,Herbicidal activity,"[1]; BT 12-166, resistant HRAC group A, B, E, K, 125 g ai/ha",90
same,Herbicidal activity,"[1]; BT 12-166, resistant HRAC group A, B, E, K, 250 g ai/ha",90
same,Herbicidal activity,"[1]; BT 12-307, resistant HRAC group B, F, K, O, 125 g ai/ha",70
same,Herbicidal activity,"[1]; BT 12-307, resistant HRAC group B, F, K, O, 250 g ai/ha",90
same,Herbicidal activity,"[1]; BT 13-243, Sensitive standard, 125 g ai/ha",75
same,Herbicidal activity,"[1]; BT 13-243, Sensitive standard, 250 g ai/ha",90
same,Herbicidal activity,"[1]; BT 13-304, resistant HRAC group A, B, E, K, 125 g ai/ha",85
same,Herbicidal activity,"[1]; BT 13-304, resistant HRAC group A, B, E, K, 250 g ai/ha",95
same,Herbicidal activity,"[1]; BT 13-313, resistant HRAC group A, B, C, E, K, 125 g ai/ha",70
same,Herbicidal activity,"[1]; BT 13-313, resistant HRAC group A, B, C, E, K, 250 g ai/ha",95
same,herbicidal activity (summary in words),"[1]; post-emergence treatment, various biotypes of ryegrass (LOLMU) with varying degrees of resistance",very good herbicidal activity (a very good herbicidal activity is given at values of at least 85)
same,Herbicidal activity,BRSNW; solo application 62.5 g ai/ha,0%
same,Herbicidal activity,BRSNW; solo application 125 g ai/ha,0%
same,Herbicidal activity,BRSNW; solo application 500 g ai/ha,0%
same,Herbicidal activity,ALOMY; solo application 62.5 g ai/ha,30%
same,Herbicidal activity,ALOMY; solo application 125 g ai/ha,55%
same,Herbicidal activity,ALOMY; solo application 250 g ai/ha,70%
same,Herbicidal activity,ALOMY; solo application 500 g ai/ha,80%
same,Herbicidal activity,LOLRI; solo application 62.5 g ai/ha,15%
same,Herbicidal activity,LOLRI; solo application 125 g ai/ha,30%
same,Herbicidal activity,LOLRI; solo application 250 g ai/ha,50%
same,Herbicidal activity,BROST; solo application 62.5 g ai/ha,0%
same,Herbicidal activity,BROST; solo application 125 g ai/ha,0%
same,Herbicidal activity,BROST; solo application 250 g ai/ha,15%
same,Herbicidal activity,BROST; solo application 500 g ai/ha,25%
same,Herbicidal activity,MATIN; solo application 62.5 g ai/ha,0%
same,Herbicidal activity,MATIN; solo application 125 g ai/ha,0%
same,Herbicidal activity,MATIN; solo application 250 g ai/ha,0%
same,Herbicidal activity,MATIN; solo application 500 g ai/ha,25%
same,Herbicidal activity,GALAP; solo application 62.5 g ai/ha,25%
same,Herbicidal activity,GALAP; solo application 125 g ai/ha,35%
same,Herbicidal activity,GALAP; solo application 250 g ai/ha,35%
same,Herbicidal activity,GALAP; solo application 500 g ai/ha,45%
same,Herbicidal activity,PAPRH; solo application 62.5 g ai/ha,0%
same,Herbicidal activity,PAPRH; solo application 250 g ai/ha,40%
same,Herbicidal activity,PAPRH; solo application 500 g ai/ha,60%
